The source made the active and inactive calls. The rule behind the calls is not given here.
Columns and labels:
Rattus norvegicus [1] = test: Antagonistic activity against fenfluramine induced hyperthermia in rat after peroral administration; format: functional; conditions: po, read-out: ID50 (the source's name)
Mus musculus [2] = test: Antagonistic activity test against 5-Hydroxytryptamine-induced head shake in mouse after intraperitoneal administration; format: functional; conditions: ip, read-out: ID50 (the source's name)
Rattus norvegicus [3] = test: compound was tested for antagonistic activity against fenfluramine induced hyperthermia in rat after peroral administration at 50 mg/kg; format: functional, organism-based; design: dose 50 mg/kg
Mus musculus [4] = test: compound was tested for antagonistic activity against 5-Hydroxytryptamine-induced head shake in mouse after intraperitoneal administration; NA denotes not active at a dose of 50 mg/kg.; format: functional, organism-based; design: dose 50 mg/kg
Mus musculus [5] = test: compound was tested for antagonistic activity against 5-Hydroxytryptamine-induced head shake in mouse after intraperitoneal administration; NA denotes not active.; format: functional, organism-based
Rattus norvegicus [6] = test: compound was tested for antagonistic activity against fenfluramine induced hyperthermia in rat after peroral administration at 50 mg/kg; NA denotes not active.; format: functional, organism-based; design: dose 50 mg/kg
Mus musculus [7] = species: Mus musculus; test: compound was tested for antagonistic activity against 5-Hydroxytryptamine-induced head shake in mouse; format: functional; conditions: read-out: ID50 (the source's name)
Rattus norvegicus [8] = test: compound was tested for antagonistic activity against fenfluramine induced hyperthermia in rat after peroral administration; Value ranges from 0.3-4.3; format: functional; conditions: po, read-out: ID50 (the source's name)
Mus musculus [9] = test: compound was tested for antagonistic activity against 5-Hydroxytryptamine-induced head shake in mouse after intraperitoneal administration; Value ranges from 1.0-2.5; format: functional; conditions: ip, read-out: ID50 (the source's name)
Rattus norvegicus [10] = test: compound was tested for antagonistic activity against fenfluramine induced hyperthermia in rat after peroral administration; Value ranges from 0.1-1.3; format: functional; conditions: po, read-out: ID50 (the source's name)
Mus musculus [11] = test: compound was tested for antagonistic activity against 5-Hydroxytryptamine-induced head shake in mouse after intraperitoneal administration; Value ranges from 0.35-0.77; format: functional; conditions: ip, read-out: ID50 (the source's name)
Mus musculus [12] = test: compound was tested for antagonistic activity against 5-Hydroxytryptamine-induced head shake in mouse after intraperitoneal administration; Value ranges from 0.02-0.9; format: functional; conditions: ip, read-out: ID50 (the source's name)
Rattus norvegicus [13] = test: compound was tested for antagonistic activity against fenfluramine induced hyperthermia in rat after peroral administration 0.02-0.3; format: functional; conditions: po, read-out: ID50 (the source's name)
Rattus norvegicus [14] = test: compound was tested for antagonistic activity against fenfluramine induced hyperthermia in rat after peroral administration at a dose of 50 mg/kg; NA denotes not active.; format: functional, organism-based; design: dose 50 mg/kg
Rattus norvegicus [15] = test: compound was tested for antagonistic activity against fenfluramine induced hyperthermia in rat after peroral administration; NA denotes not active at a dose of 50 mg/kg.; format: functional, organism-based; design: dose 50 mg/kg
Rattus norvegicus [16] = species: Rattus norvegicus; test: compound was tested for antagonistic activity against fenfluramine induced hyperthermia in rat; format: functional; conditions: read-out: ID50 (the source's name)

| Structure (SMILES) | ED50 (Rattus norvegicus [1]) [mg/kg] | ED50 (Mus musculus [2]) [mg/kg] | other results |
| --- | --- | --- | --- |
| COc1ccccc1-c1cc2cc(C)ccc2nc1SCCN(C)C.O=C(O)C(=O)O | 50 | 50 | – |
| Cc1ccc(-c2cc3ccccc3nc2SCCN(C)C)cc1.Cl | 4.2 | 1.9 | – |
| Cc1cc2ccccc2nc1SCCN(C)C | – | – | ID50 (Rattus norvegicus [3]): inactive; ID50 (Mus musculus [4]): inactive |
| CN(C)CCSc1nc2cc(N(C)C)ccc2cc1-c1ccccc1.O=C(O)C(=O)O | 50 | – | ID50 (Mus musculus [5]): inactive |
| CN(C)CCSc1nc2ccccc2cc1-c1ccc(F)cc1.Cl | 2.9 | 1.7 | – |
| CN(C)CCSc1nc2ccccc2cc1-c1ccc(Br)cc1.Cl | 50 | 19.1 | – |
| CN(C)CCSc1nc2ccccc2cc1Cc1ccccc1.Cl | – | 50 | ID50 (Rattus norvegicus [6]): inactive |
| Cc1ccc2cc(-c3ccccc3)c(SCCN(C)C)nc2c1.O=C(O)C(=O)O | 50 | 50 | – |
| Cc1ccccc1-c1cc2ccccc2nc1SCCN(C)C.Cl | 50 | 3 | – |
| CCCc1cc2ccccc2nc1SCCN(C)C.O=C(O)C(=O)O | – | – | ED50 (Mus musculus [7]): 5 mg/kg; ID50 (Rattus norvegicus [6]): inactive |
| CN(C)CCSc1nc2ccccc2cc1C(C)(C)C.O=C(O)C(=O)O | – | 50 | ID50 (Rattus norvegicus [6]): inactive |
| CCCOc1ccc(-c2cc3ccccc3nc2SCCN(C)C)cc1.Cl | 5.3 | 0.5 | – |
| CN(C)CCSc1nc2ccccc2cc1-c1ccccc1Cl.Cl | 9.9 | 50 | – |
| CN(C)CCSc1nc2ccccc2cc1-c1ccccc1.Cl | – | – | ED50 (Rattus norvegicus [8]): 1.2 mg/kg; ED50 (Mus musculus [9]): 1.6 mg/kg |
| CCN(CC)CCSc1nc2ccccc2cc1-c1ccccc1.Cl | 50 | 25 | – |
| CN(C)CCSc1nc2ccccc2cc1-c1cccc(F)c1.Cl | 4.6 | 2.5 | – |
| COc1ccccc1-c1cc2ccccc2nc1SCCN(C)C.Cl | 4.6 | 1.2 | – |
| CN(C)CCSc1nc2ccc(Br)cc2cc1-c1ccccc1.O=C(O)C(=O)O | 6.7 | 50 | – |
| CC(C)c1cc2ccccc2nc1SCCN(C)C.Cl | 2.7 | 2.6 | – |
| CCc1cc2ccccc2nc1SCCN(C)C.Cl | 50 | 50 | – |
| CSc1ccc2cc(-c3ccccc3)c(SCCN(C)C)nc2c1 | 50 | – | ID50 (Mus musculus [5]): inactive |

| Structure (SMILES) | ED50 (Rattus norvegicus [1]) [mg/kg] | ED50 (Mus musculus [2]) [mg/kg] | other results |
| --- | --- | --- | --- |
| COc1ccccc1-c1c(SCCN(C)C)nc2ccccc2c1C.O=C(O)C(=O)O | 50 | 50 | – |
| COc1ccc2nc(SCCN(C)C)c(-c3ccccc3)cc2c1.O=C(O)C(=O)O | 8.3 | 50 | – |
| CC[C@@H](CO)NC(=O)[C@@H]1C=C2c3cccc4c3c(cn4C)C[C@H]2N(C)C1 [METHYSERGIDE] | – | – | ED50 (Rattus norvegicus [10]): 0.4 mg/kg; ED50 (Mus musculus [11]): 0.52 mg/kg |
| Cc1cccc2cc(-c3ccccc3)c(SCCN(C)C)nc12 | – | – | ID50 (Rattus norvegicus [6]): inactive; ID50 (Mus musculus [5]): inactive |
| Cc1ncc(-c2cc3ccccc3nc2SCCN(C)C)s1.O=C(O)C(=O)O | 6.9 | 4.9 | – |
| O=C(c1ccc(F)cc1)C1CCN(CCn2c(=O)[nH]c3ccccc3c2=O)CC1 [KETANSERIN] | – | – | ED50 (Mus musculus [12]): 0.5 mg/kg; ED50 (Rattus norvegicus [13]): 0.1 mg/kg |
| CN(C)CCSc1nc2ccccc2cc1-c1cccs1.O=C(O)C(=O)O | 6.9 | 4.9 | – |
| CN(C)CCSc1nc2ccccc2cc1C1CCCCC1.Cl | 50 | 50 | – |
| CN(C)CCSc1nc2ccccc2cc1C1CCCC1.O=C(O)C(=O)O | – | 50 | ID50 (Rattus norvegicus [6]): inactive |
| CN(C)CCSc1nc2ccccc2cc1-c1ccsc1.O=C(O)C(=O)O | 7.9 | 3.4 | – |
| Cc1c(-c2ccccc2)c(SCCN(C)C)nc2ccccc12.O=C(O)C(=O)O | 50 | 6.2 | – |
| COc1c(-c2ccccc2C)c(SCCN(C)C)nc2ccccc12.Cl | 7.2 | 50 | – |
| COc1c(-c2ccsc2)c(SCCN(C)C)nc2ccccc12.O=C(O)C(=O)O | – | 50 | ID50 (Rattus norvegicus [6]): inactive |
| CN(C)CCSc1nc2ccccc2cc1-c1ccc(O)cc1.Cl | 50 | 7.9 | – |
| CC(c1ccccc1)c1cc2ccccc2nc1SCCN(C)C.O=C(O)C(=O)O (stereo not drawn) | – | 50 | ID50 (Rattus norvegicus [6]): inactive |
| CN(C)CCSc1nc2ccccc2cc1-c1ccc(C(F)(F)F)cc1.Cl | – | 50 | ID50 (Rattus norvegicus [14]): inactive |
| CN(C)CCSc1nc2ccccc2c(C(N)=O)c1-c1ccccc1 | – | – | ID50 (Rattus norvegicus [6]): inactive; ID50 (Mus musculus [5]): inactive |
| COc1ccc2cc(-c3ccccc3)c(SCCN(C)C)nc2c1.Cl | 3.1 | 50 | – |
| CNCCSc1nc2ccccc2cc1-c1ccccc1.Cl | 7 | 6.2 | – |
| CCC(C)c1cc2ccccc2nc1SCCN(C)C.O=C(O)C(=O)O (stereo not drawn) | 50 | 1.5 | – |
| Cc1c(-c2ccsc2)c(SCCN(C)C)nc2ccccc12.O=C(O)C(=O)O | 50 | 3.1 | – |

| Structure (SMILES) | ED50 (Rattus norvegicus [1]) [mg/kg] | ED50 (Mus musculus [2]) [mg/kg] | other results |
| --- | --- | --- | --- |
| COc1cccc(-c2cc3ccccc3nc2SCCN(C)C)c1.Cl | 5.1 | 25 | – |
| CN(C)CCSc1nc2ccccc2cc1-c1ccc(C#N)cc1.Cl | 10.7 | 1.2 | – |
| COc1ccc(OC)c(-c2cc3ccccc3nc2SCCN(C)C)c1.Cl | 4.2 | 3 | – |
| Cc1c(C(C)C)c(SCCN(C)C)nc2ccccc12.O=C(O)C(=O)O | – | 50 | ID50 (Rattus norvegicus [6]): inactive |
| CN(C)CCSc1nc2ccccc2cc1C1CC1.O=C(O)C(=O)O | 25 | 3.4 | – |
| Cc1cccc(-c2cc3ccccc3nc2SCCN(C)C)c1.Cl | 5.9 | 1.7 | – |
| COc1ccc(-c2cc3ccccc3nc2SCCN(C)C)cc1.Cl | 28 | 5.9 | – |
| CCCCc1cc2ccccc2nc1SCCN(C)C.Cl | 50 | 2.3 | – |
| CN(C)CCSc1nc2ccccc2cc1-c1ccccc1F.Cl | 7.2 | 1.9 | – |
| CCN(C)CCSc1nc2ccccc2cc1-c1ccccc1.O=C(O)C(=O)O | – | 50 | – |
| CN(C)CCSc1nc2ccc(Cl)cc2cc1-c1ccccc1.O=C(O)C(=O)O | 50 | 50 | – |
| CCCOc1ccc2cc(-c3ccccc3)c(SCCN(C)C)nc2c1.O=C(O)C(=O)O | 50 | 50 | – |
| CN(C)CCSc1nc2ccccc2cc1-c1ccccn1.O=C(O)C(=O)O | 50 | 3.4 | – |
| CN(C)CCSc1nc2ccccc2cc1-c1ccc(Cl)cc1.Cl | – | 9.1 | ID50 (Rattus norvegicus [15]): inactive |
| COc1c(-c2ccc(F)cc2)c(SCCN(C)C)nc2ccccc12.O=C(O)C(=O)O | 3.3 | 50 | – |
| Cc1c(-c2ccc(F)cc2)c(SCCN(C)C)nc2ccccc12.O=C(O)C(=O)O | 11.1 | 50 | – |
| Cl.NCCSc1nc2ccccc2cc1-c1ccccc1 | 4.8 | 50 | – |
| COc1c(-c2ccccc2)c(SCCN(C)C)nc2ccccc12.O=C(O)C(=O)O | 5.5 | 3.5 | – |
| CSc1ccc(-c2cc3ccccc3nc2SCCN(C)C)cc1.Cl | – | 10 | ED50 (Rattus norvegicus [16]): 7.8 mg/kg |
| CSc1ccc2nc(SCCN(C)C)c(-c3ccccc3)cc2c1.O=C(O)C(=O)O | 10.3 | 50 | – |
